Measurements: US20050266096A1, “New synergetic compositions of vitamins, minerals and trace-elements to stimulate the elimination of intra-cellular lipid deposits” (priority 2004, published 2005)

Test system: vascular smooth muscle cells
Test: Reduction of intracellular lipid deposits in lipid-loaded cell cultures
Type: cell-based
Conditions: individual element; concentration per row in μg/ml (0.016% RDA); 3 days after exposure; vs untreated control cultures = 100% lipid deposits; n = 24
Experimental: To evaluate the effects of vitamins, minerals & trace-elements on the cellular capacity to eliminate intracellular lipid deposits, the cultures of vascular smooth muscle cells were prepared on plastic cover slips in vitro as described by Shrivastava at al (Meth Expt Find,1994).
A 50-60% cell monolayer was obtained within 4 days of culture. The hyperlipidemic rabbit serum was added to the culture medium, cells were incubated at 37° C.-5% CO2 for 48 h and the presence of intracellular cytoplasmic lipid deposit was quantified (considered 100% lipid deposits) . The culture medium was then replaced by a predefined blank medium containing no vitamins, minerals & trace-elements containing 1% fetal calf serum. Desired concentrations of vitamins, minerals and trace-elements were prepared in the predefined control culture medium by dissolving the test substances in the medium and by replacing the culture medium by the test product containing medium.
The in vitro cytoxicity of each vitamin, mineral and trace-element was determined. […]
The results were expressed a mean percentage decrease in intracellular lipid deposits compared to the untreated control cultures considered as containing 100% lipid deposits.

Compound	Percent decrease in intracellular lipids
[I-].[K+] [Iodine, potassium iodide]	0.0%
[O]=[Mg] [Magnesium, magnesium oxide]	22.0 ± 5.2%
[Cl-].[K+] [Potassium, potassium chloride]	0.0%
[O-2].[Zn+2] [Zinc, zinc oxide]	16.3 ± 4.4%
calcium gluconate	0.0%
iron gluconate	6.3 ± 2.7%

Same assay, conditions: tables 1-3

Compound	effect on the reduction/elimination of intracellular lipid deposits (in words)
[O]=[Mg] [Magnesium, magnesium oxide]	minor effect
CC1=C(/C=C/C(C)=C/C=C/C(C)=C/C=C/C=C(C)/C=C/C=C(C)/C=C/C2=C(C)CCCC2(C)C)C(C)(C)CCC1 [Vitamin A, beta carotene]	minor effect
Cc1cc2nc3c(=O)[nH]c(=O)nc-3n(C[C@H](O)[C@H](O)[C@H](O)CO)c2cc1C [Vitamin B2, riboflavin]	minor effect
Nc1nc2ncc(CNc3ccc(C(=O)N[C@@H](CCC(=O)O)C(=O)O)cc3)nc2c(=O)[nH]1 [Vitamin B9, folic acid]	minor effect
CC(=O)Oc1c(C)c(C)c2c(c1C)CCC(C)(CCC[C@H](C)CCC[C@H](C)CCCC(C)C)O2 (stereo partly drawn) [Vitamin E, tocopherol acetate]	minor effect
[O-2].[Zn+2] [Zinc, zinc oxide]	minor effect
